Measured values: ChEMBL document CHEMBL2046410, “Computational design and discovery of "minimally structured" hERG blockers” (J Med Chem, 2012)
pIC50: −log10 of the molar value.

Target: Voltage-gated inwardly rectifying potassium channel KCNH2 (Homo sapiens, UniProt Q12809)
Assay: Inhibition of human ERG expressed in HEK cells by patch clamp assay
Format: cell-based, HEK293
Details: read-out: IC50

Chain of Voltage-gated inwardly rectifying potassium channel KCNH2 (Q12809 whole entry): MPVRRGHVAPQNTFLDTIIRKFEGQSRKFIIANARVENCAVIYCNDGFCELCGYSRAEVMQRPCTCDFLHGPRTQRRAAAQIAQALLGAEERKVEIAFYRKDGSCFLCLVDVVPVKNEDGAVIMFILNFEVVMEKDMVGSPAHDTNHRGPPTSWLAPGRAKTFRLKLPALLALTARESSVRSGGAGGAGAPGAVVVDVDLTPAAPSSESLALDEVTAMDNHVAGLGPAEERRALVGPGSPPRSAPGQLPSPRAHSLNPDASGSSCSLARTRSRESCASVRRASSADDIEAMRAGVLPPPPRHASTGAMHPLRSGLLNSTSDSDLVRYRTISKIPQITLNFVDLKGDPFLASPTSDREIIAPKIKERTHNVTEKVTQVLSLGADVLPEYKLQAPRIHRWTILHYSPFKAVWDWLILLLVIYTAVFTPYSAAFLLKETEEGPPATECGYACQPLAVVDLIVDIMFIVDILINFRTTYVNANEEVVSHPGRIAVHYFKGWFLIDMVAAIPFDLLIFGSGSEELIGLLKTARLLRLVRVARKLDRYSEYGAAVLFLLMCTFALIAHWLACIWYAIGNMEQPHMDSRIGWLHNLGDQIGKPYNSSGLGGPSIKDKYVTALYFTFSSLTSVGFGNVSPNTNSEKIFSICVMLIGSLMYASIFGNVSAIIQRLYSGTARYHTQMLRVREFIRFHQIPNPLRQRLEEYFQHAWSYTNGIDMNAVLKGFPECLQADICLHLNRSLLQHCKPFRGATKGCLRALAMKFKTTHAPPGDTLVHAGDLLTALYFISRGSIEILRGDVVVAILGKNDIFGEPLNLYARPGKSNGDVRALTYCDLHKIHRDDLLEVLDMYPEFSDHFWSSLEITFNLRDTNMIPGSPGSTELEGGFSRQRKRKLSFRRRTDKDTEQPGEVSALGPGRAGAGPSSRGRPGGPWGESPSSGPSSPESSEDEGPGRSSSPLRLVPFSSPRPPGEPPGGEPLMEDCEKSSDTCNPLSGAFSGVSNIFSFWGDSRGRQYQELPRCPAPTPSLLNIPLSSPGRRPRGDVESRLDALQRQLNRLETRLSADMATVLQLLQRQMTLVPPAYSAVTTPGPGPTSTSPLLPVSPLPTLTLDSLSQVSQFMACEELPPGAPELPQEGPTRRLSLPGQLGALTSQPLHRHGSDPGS

Row | SMILES | pIC50
1 | O=C(Cc1ccccc1)NCCN(c1ccccc1)c1ccccc1 | 5.10
2 | c1ccc(CCCNCCN(c2ccccc2)c2ccccc2)cc1 | 6.24
3 | Fc1ccc(N(CCNCCCc2ccccc2)c2ccc(F)cc2)cc1 | 8.62
4 | c1ccc(CCNCCC(c2ccccc2)c2ccccc2)cc1 | 5.55
5 | O=C(CCc1ccccc1)NCCN(c1ccc(F)cc1)c1ccc(F)cc1 | 6.72
6 | c1ccc(CCCNCCC(c2ccccc2)c2ccccc2)cc1 | 7.77

Same assay, conditions: read-out: pIC50 (converted)

Row | SMILES | IC50 [nM]
7 | c1ccc(CCNCCC(c2ccccc2)c2ccccc2)cc1 | 3160
